Results as given in PubChem BioAssay (NCI).
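Briefly, cells in 96-well plates were exposed to five compound concentrations for 48 h, and endpoints were estimated by linear interpolation. GI50: concentration for 50% inhibition of growth. Definition used: TGI = concentration required for complete inhibition of growth.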

Experiments:
Test in all cases: growth of human tumour cells (NCI), 48 h
[1] = tested on: 786-0 renal
[2] = tested on: A498 renal
[3] = tested on: A549 NSCLC
[4] = tested on: ACHN renal
[5] = tested on: BT-549 breast
[6] = tested on: CAKI-1 renal
[7] = tested on: CCRF-CEM leukemia
[8] = tested on: COLO 205 colon
[9] = tested on: DU-145 prostate
[10] = tested on: EKVX NSCLC
[11] = tested on: HCC-2998 colon
[12] = tested on: HCT-116 colon
[13] = tested on: HCT-15 colon
[14] = tested on: HL-60(TB) leukemia
[15] = tested on: HOP-62 NSCLC
[16] = tested on: HOP-92 NSCLC
[17] = tested on: HS 578T breast
[18] = tested on: HT29 colon
[19] = tested on: IGROV1 ovarian
[20] = tested on: K-562 leukemia
[21] = tested on: KM12 colon
[22] = tested on: LOX IMVI melanoma
[23] = tested on: M14 melanoma
[24] = tested on: MALME-3M melanoma
[25] = tested on: MCF7 breast
[26] = tested on: MDA-MB-231 breast
[27] = tested on: MDA-MB-435
[28] = tested on: MOLT-4 leukemia
[29] = tested on: NCI-H226 lung
[30] = tested on: NCI-H23 lung
[31] = tested on: NCI-H460 lung
[32] = tested on: NCI-H522 lung
[33] = tested on: NCI/ADR-RES ovarian
[34] = tested on: OVCAR-3 ovarian
[35] = tested on: OVCAR-4 ovarian
[36] = tested on: OVCAR-5 ovarian
[37] = tested on: OVCAR-8 ovarian
[38] = tested on: PC-3 prostate
[39] = tested on: RPMI-8226 leukemia
[40] = tested on: RXF 393 renal
[41] = tested on: SF-268 CNS
[42] = tested on: SF-295 CNS
[43] = tested on: SF-539 CNS
[44] = tested on: SK-MEL-2 melanoma
[45] = tested on: SK-MEL-28 melanoma
[46] = tested on: SK-MEL-5 melanoma
[47] = tested on: SK-OV-3 ovarian
[48] = tested on: SN12C renal
[49] = tested on: SNB-19 CNS
[50] = tested on: SNB-75 CNS
[51] = tested on: SR leukemia
[52] = tested on: SW-620 colon
[53] = tested on: T-47D breast
[54] = tested on: TK-10 renal
[55] = tested on: U251 CNS
[56] = tested on: UACC-257 melanoma
[57] = tested on: UACC-62 melanoma
[58] = tested on: UO-31 renal

Q: For `CCc1c2c(nc3ccc(OC(=O)NCc4ccc(B5OC(C)(C)C(C)(C)O5)cc4)cc13)-c1cc3c(c(=O)n1C2)COC(=O)[C@]3(O)CC`, which GI50 [1] is on record?
A: 13.6 nM

Q: What about the TGI [1] of the same compound?
A: 346 nM

Q: What about the GI50 [2] of the same compound?
A: 14.1 nM

Q: And the TGI [2]?
A: 175 nM

Q: And the GI50 [3]?
A: 82.5 nM

Q: What about the TGI [3] of the same compound?
A: 8090 nM

Q: And the GI50 [4]?
A: 20.2 nM

Q: What about the TGI [4] of the same compound?
A: 1130 nM

Q: What about the GI50 [5] of the same compound?
A: 52 nM

Q: What about the TGI [5] of the same compound?
A: 2740 nM

Q: And the GI50 [6]?
A: 16.2 nM

Q: What about the TGI [6] of the same compound?
A: 1100 nM

Q: And the GI50 [7]?
A: < 10 nM

Q: What about the TGI [7] of the same compound?
A: > 100000 nM

Q: And the GI50 [8]?
A: 73.4 nM

Q: And the TGI [8]?
A: 11000 nM

Q: What about the GI50 [9] of the same compound?
A: 16.8 nM

Q: What about the TGI [9] of the same compound?
A: > 100000 nM

Q: And the GI50 [10]?
A: 758 nM

Q: What about the TGI [10] of the same compound?
A: > 81900 nM

Q: What about the GI50 [11] of the same compound?
A: 250 nM

Q: And the TGI [11]?
A: 3560 nM

Q: And the GI50 [12]?
A: < 10.8 nM

Q: And the TGI [12]?
A: > 100000 nM

Q: And the GI50 [13]?
A: 277 nM

Q: And the TGI [13]?
A: > 100000 nM

Q: What about the GI50 [14] of the same compound?
A: < 19.1 nM

Q: What about the GI50 [15] of the same compound?
A: < 10 nM

Q: And the TGI [15]?
A: 2920 nM

Q: And the GI50 [16]?
A: 42 nM

Q: What about the TGI [16] of the same compound?
A: 2470 nM

Q: And the GI50 [17]?
A: 1140 nM

Q: What about the TGI [17] of the same compound?
A: 15900 nM

Q: And the GI50 [18]?
A: 120 nM

Q: And the TGI [18]?
A: > 21200 nM

Q: And the GI50 [19]?
A: 214 nM

Q: And the TGI [19]?
A: > 42700 nM

Q: And the GI50 [20]?
A: 34.3 nM

Q: What about the TGI [20] of the same compound?
A: > 100000 nM

Q: And the GI50 [21]?
A: 167 nM

Q: And the TGI [21]?
A: > 30100 nM

Q: And the GI50 [22]?
A: < 10 nM

Q: What about the TGI [22] of the same compound?
A: 167 nM

Q: What about the GI50 [23] of the same compound?
A: < 10 nM

Q: What about the TGI [23] of the same compound?
A: 104 nM

Q: What about the GI50 [24] of the same compound?
A: 74.1 nM

Q: And the TGI [24]?
A: 1310 nM

Q: And the GI50 [25]?
A: < 10 nM

Q: And the TGI [25]?
A: > 100000 nM

Q: And the GI50 [26]?
A: 1590 nM

Q: And the TGI [26]?
A: > 84100 nM

Q: What about the GI50 [27] of the same compound?
A: 107 nM

Q: What about the TGI [27] of the same compound?
A: 2700 nM

Q: What about the GI50 [28] of the same compound?
A: < 10 nM

Q: What about the TGI [28] of the same compound?
A: > 100000 nM

Q: And the GI50 [29]?
A: 21.6 nM

Q: And the TGI [29]?
A: 635 nM

Q: What about the GI50 [30] of the same compound?
A: 18.1 nM

Q: What about the TGI [30] of the same compound?
A: 771 nM

Q: And the GI50 [31]?
A: 14.1 nM

Q: What about the TGI [31] of the same compound?
A: 343 nM

Q: What about the GI50 [32] of the same compound?
A: 16.7 nM

Q: What about the TGI [32] of the same compound?
A: 3870 nM

Q: What about the GI50 [33] of the same compound?
A: 51.1 nM

Q: What about the TGI [33] of the same compound?
A: > 100000 nM

Q: And the GI50 [34]?
A: 148 nM

Q: And the TGI [34]?
A: 3200 nM

Q: What about the GI50 [35] of the same compound?
A: 392 nM

Q: And the TGI [35]?
A: 63700 nM

Q: What about the GI50 [36] of the same compound?
A: 287 nM

Q: What about the TGI [36] of the same compound?
A: > 24300 nM

Q: What about the GI50 [37] of the same compound?
A: 22.8 nM

Q: What about the TGI [37] of the same compound?
A: > 100000 nM

Q: And the GI50 [38]?
A: 144 nM

Q: And the TGI [38]?
A: > 100000 nM

Q: What about the GI50 [39] of the same compound?
A: 270 nM

Q: What about the TGI [39] of the same compound?
A: 3480 nM

Q: What about the GI50 [40] of the same compound?
A: 27.9 nM

Q: What about the TGI [40] of the same compound?
A: 322 nM

Q: What about the GI50 [41] of the same compound?
A: < 10 nM

Q: And the TGI [41]?
A: 4040 nM

Q: And the GI50 [42]?
A: 16 nM

Q: What about the TGI [42] of the same compound?
A: 3400 nM

Q: What about the GI50 [43] of the same compound?
A: < 10 nM

Q: And the TGI [43]?
A: 77.1 nM

Q: And the GI50 [44]?
A: 790 nM

Q: What about the TGI [44] of the same compound?
A: > 22600 nM

Q: What about the GI50 [45] of the same compound?
A: 577 nM

Q: And the TGI [45]?
A: 8900 nM

Q: And the GI50 [46]?
A: 35.6 nM

Q: And the TGI [46]?
A: 301 nM

Q: And the GI50 [47]?
A: 28.6 nM

Q: What about the TGI [47] of the same compound?
A: 8180 nM

Q: And the GI50 [48]?
A: < 10 nM

Q: And the TGI [48]?
A: > 100000 nM

Q: What about the GI50 [49] of the same compound?
A: < 10 nM

Q: And the TGI [49]?
A: > 100000 nM

Q: And the GI50 [50]?
A: 19.9 nM

Q: And the TGI [50]?
A: 448 nM

Q: And the GI50 [51]?
A: < 10 nM

Q: And the TGI [51]?
A: > 100000 nM

Q: What about the GI50 [52] of the same compound?
A: 22.7 nM

Q: What about the GI50 [53] of the same compound?
A: < 10 nM

Q: And the TGI [53]?
A: > 100000 nM

Q: And the GI50 [54]?
A: 1600 nM

Q: And the TGI [54]?
A: > 91400 nM

Q: What about the GI50 [55] of the same compound?
A: < 10 nM

Q: What about the TGI [55] of the same compound?
A: > 100000 nM

Q: And the GI50 [56]?
A: 226 nM

Q: What about the TGI [56] of the same compound?
A: 3360 nM

Q: What about the GI50 [57] of the same compound?
A: < 10 nM

Q: And the TGI [57]?
A: 220 nM

Q: What about the GI50 [58] of the same compound?
A: 27.4 nM

Q: And the TGI [58]?
A: 294 nM
